pIC50: −log10 of the molar value. Like-named read-outs stand apart in the source and are kept apart here.
Experiments:
CDK3/CycC = CDK3/CycC (Homo sapiens, UniProt Q00526); assay: Kinase profiling; assay type: biochemical; details: 10 semi-logarithmic dilutions from 50 μM, singlicate
CDK19/CycC = CDK19/CycC (Homo sapiens, UniProt Q9BWU1); assay: Kinase profiling; assay type: biochemical; details: 10 semi-logarithmic dilutions from 50 μM, singlicate
[1] = tested on: U87MG glioblastoma cell line; assay: Proliferation assay: determination of GI50; assay type: cell-based, human; details: Homo sapiens, U-87 MG; Table 3; 48 h; n = 3 independent experiments; read-out: GI50 U87MG
Experimental: (§1) The following human tumor cell lines, all Retinoblastoma (Rb)-proficient, were used in this study: MDA-MB231 (breast cancer), MDA-MB453 (breast cancer), U87MG (glioblastoma) and H460 (lung cancer). MDA-MB468 (breast cancer) and SW1783 (glioblastoma) Rb-deficient cells were also included in the study, as well as the MCF10A non-transformed mammary epithelial cell line. Tumor cell lines were maintained in DMEM or RPMI-1640 medium, depending on the cell line, supplemented with 10% FBS. MCF10A cells were grown in complete mammary epithelial growth medium (MEGM, Lonza). Cell lines were authenticated by short tandem repeat (STR) loci profiling with the GenePrint® 10 System (Promega).
(§2) All human cancer cell lines (Table 2) were obtained from the American Type Culture Collection, and were maintained in DMEM (Hyclone) or RPMI-1640 medium (Sigma) supplemented with 10% fetal bovine serum (Sigma). Non-transformed MCF10 cell line was maintained in MEGM Mammary Epithelial Cell Growth Medium (Lonza). Immortalized mouse embryonic fibroblasts (MEFs) were maintained in DMEM with 10% fetal bovine serum.
(§3) 48 h later cells were fixed with PFA 4% for 15 minutes, stained with 10 μg/ml Hoechst 33342 (Molecular Probes, Thermo Fisher) for 30 minutes and washed twice with PBS. Cells were imaged in a high content screening system (Opera Phoenix™, Perkin Elmer) using a 20× dry objective (30 fields/well). Cell counts were determined by the Opera software (Perkin Elmer) and data were further processed with SPSS software. GI50 was calculated by estimating the absolute IC50 using dose-response inhibition tool in Prism6 (Graphpad Software Inc.).

[2] = tested on: MCF10 non-transformed mammary epithelial cell line; assay: Proliferation assay: determination of GI50; assay type: cell-based, human; details: Homo sapiens, MCF10; Table 3; 48 h; n = 2 independent experiments
Experimental: as §1, §2, §3

[3] = tested on: H460 lung carcinoma cell line; assay: Proliferation assay: determination of GI50; assay type: cell-based, human; details: Homo sapiens, NCI-H460; Table 3; 48 h; n = 2 independent experiments
Experimental: as §1, §2, §3

[4] = tested on: MDA-MB-231 breast carcinoma cell line; assay: Proliferation assay: determination of GI50; assay type: cell-based, human; details: Homo sapiens, MDA-MB-231; Table 3; 48 h; n = 3 independent experiments; read-out: GI50 MDA-MB231
Experimental: as §1, §2, §3

AKT1 aa1-480 = target: T1, AKT1 aa1-480 (Homo sapiens, UniProt P31749); assay: Kinase profiling; assay type: biochemical; details: 10 semi-logarithmic dilutions from 50 μM, singlicate
T1 construct: AKT1 aa1-480

HIPK2 = HIPK2 (Homo sapiens, UniProt Q9H2X6); assay: Kinase profiling; assay type: biochemical
Sequence of HIPK2 (Q9H2X6 whole entry): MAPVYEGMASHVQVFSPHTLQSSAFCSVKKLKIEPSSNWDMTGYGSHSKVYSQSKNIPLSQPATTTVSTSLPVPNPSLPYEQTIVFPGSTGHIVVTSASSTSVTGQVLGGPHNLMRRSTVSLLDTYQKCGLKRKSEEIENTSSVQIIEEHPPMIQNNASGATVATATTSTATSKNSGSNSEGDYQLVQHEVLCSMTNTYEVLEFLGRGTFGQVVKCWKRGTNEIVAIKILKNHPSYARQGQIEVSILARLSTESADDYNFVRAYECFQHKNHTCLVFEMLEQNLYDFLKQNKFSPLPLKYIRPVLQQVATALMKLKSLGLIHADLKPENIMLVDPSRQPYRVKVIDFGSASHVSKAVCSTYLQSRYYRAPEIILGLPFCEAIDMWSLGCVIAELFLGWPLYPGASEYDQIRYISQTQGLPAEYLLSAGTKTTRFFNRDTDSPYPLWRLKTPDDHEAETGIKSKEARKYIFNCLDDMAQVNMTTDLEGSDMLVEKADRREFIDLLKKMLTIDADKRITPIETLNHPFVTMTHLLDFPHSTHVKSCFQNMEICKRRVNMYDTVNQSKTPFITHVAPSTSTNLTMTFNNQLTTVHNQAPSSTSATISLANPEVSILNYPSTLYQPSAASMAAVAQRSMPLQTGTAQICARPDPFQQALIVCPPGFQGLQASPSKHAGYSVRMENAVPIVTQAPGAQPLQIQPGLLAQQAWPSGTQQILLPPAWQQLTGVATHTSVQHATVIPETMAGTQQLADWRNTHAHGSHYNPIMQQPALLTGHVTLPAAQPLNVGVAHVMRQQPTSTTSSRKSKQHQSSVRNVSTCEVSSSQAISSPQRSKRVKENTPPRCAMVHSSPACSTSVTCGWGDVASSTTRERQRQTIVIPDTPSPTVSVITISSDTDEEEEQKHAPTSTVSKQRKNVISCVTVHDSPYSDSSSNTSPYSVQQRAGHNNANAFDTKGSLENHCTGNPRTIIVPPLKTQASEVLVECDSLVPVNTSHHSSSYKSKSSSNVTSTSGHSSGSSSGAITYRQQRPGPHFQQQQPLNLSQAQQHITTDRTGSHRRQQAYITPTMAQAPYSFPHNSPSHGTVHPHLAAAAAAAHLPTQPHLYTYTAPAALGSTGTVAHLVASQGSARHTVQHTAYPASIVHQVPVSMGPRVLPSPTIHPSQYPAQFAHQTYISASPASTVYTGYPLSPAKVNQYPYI

CDC7/DBF4 = CDC7/DBF4 (Homo sapiens, UniProt O00311); assay: Kinase profiling; assay type: biochemical
Sequence of CDC7/DBF4 (O00311 whole entry): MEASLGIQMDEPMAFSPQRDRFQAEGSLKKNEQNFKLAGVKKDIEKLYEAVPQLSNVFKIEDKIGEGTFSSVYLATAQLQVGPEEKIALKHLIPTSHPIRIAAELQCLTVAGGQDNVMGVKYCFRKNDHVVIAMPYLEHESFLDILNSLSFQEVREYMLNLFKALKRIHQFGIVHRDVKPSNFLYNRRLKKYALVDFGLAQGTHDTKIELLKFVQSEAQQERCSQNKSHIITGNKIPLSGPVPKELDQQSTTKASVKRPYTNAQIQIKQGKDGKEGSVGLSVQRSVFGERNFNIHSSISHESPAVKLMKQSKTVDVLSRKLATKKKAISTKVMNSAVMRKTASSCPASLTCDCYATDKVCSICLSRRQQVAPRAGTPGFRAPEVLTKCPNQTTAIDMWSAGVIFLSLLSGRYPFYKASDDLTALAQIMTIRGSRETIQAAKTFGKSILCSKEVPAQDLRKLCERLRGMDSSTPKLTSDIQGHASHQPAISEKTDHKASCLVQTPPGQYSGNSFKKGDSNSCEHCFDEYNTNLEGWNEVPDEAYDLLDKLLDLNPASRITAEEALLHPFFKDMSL
Sequence of CDC7/DBF4 (Q9UBU7 whole entry partner): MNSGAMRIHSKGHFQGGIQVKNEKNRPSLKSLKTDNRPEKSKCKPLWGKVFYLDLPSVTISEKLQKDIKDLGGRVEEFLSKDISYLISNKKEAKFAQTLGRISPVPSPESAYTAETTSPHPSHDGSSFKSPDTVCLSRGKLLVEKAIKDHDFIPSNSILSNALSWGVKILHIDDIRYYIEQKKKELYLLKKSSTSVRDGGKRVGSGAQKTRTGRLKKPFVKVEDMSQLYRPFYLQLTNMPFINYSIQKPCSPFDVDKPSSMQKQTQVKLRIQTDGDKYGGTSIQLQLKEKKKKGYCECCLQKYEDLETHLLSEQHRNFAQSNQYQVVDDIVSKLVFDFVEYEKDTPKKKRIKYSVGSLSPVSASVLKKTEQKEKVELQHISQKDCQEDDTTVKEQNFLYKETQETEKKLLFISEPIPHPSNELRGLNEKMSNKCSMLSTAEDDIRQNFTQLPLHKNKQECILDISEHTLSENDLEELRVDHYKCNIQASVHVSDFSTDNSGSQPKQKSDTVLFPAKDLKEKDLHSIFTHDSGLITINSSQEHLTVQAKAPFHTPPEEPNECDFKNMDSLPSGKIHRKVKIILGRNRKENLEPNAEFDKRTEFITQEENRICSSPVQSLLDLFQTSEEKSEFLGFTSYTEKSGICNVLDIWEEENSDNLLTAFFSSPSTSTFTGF

CDK8/CycC = CDK8/CycC (Homo sapiens, UniProt P49336); assay: Kinase profiling; assay type: biochemical; details: 10 semi-logarithmic dilutions from 50 μM, singlicate
ERK1 = ERK1 (Homo sapiens, UniProt P27361); assay: Kinase profiling; assay type: biochemical; details: 10 semi-logarithmic dilutions from 50 μM, singlicate
Sequence of ERK1 (P27361 whole entry): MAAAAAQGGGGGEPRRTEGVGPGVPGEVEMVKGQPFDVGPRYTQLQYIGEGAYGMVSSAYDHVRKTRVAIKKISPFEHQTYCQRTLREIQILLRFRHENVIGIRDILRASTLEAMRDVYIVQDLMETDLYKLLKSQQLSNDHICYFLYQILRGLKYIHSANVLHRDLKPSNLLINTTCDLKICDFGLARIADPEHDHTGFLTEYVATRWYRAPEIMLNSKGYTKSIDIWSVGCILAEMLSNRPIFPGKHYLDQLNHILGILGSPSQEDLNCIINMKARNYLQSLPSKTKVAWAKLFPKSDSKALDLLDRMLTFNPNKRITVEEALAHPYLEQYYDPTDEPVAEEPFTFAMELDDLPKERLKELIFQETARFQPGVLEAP

CDK3/CycE1 = CDK3/CycE1 (Homo sapiens, UniProt Q00526); assay: Kinase profiling; assay type: biochemical; details: 10 semi-logarithmic dilutions from 50 μM, singlicate
CDK12wt/CycK = CDK12wt/CycK (Homo sapiens, UniProt Q9NYV4); assay: Kinase profiling; assay type: biochemical; details: 10 semi-logarithmic dilutions from 50 μM, singlicate
Sequence of CDK12wt/CycK (Q9NYV4 whole entry): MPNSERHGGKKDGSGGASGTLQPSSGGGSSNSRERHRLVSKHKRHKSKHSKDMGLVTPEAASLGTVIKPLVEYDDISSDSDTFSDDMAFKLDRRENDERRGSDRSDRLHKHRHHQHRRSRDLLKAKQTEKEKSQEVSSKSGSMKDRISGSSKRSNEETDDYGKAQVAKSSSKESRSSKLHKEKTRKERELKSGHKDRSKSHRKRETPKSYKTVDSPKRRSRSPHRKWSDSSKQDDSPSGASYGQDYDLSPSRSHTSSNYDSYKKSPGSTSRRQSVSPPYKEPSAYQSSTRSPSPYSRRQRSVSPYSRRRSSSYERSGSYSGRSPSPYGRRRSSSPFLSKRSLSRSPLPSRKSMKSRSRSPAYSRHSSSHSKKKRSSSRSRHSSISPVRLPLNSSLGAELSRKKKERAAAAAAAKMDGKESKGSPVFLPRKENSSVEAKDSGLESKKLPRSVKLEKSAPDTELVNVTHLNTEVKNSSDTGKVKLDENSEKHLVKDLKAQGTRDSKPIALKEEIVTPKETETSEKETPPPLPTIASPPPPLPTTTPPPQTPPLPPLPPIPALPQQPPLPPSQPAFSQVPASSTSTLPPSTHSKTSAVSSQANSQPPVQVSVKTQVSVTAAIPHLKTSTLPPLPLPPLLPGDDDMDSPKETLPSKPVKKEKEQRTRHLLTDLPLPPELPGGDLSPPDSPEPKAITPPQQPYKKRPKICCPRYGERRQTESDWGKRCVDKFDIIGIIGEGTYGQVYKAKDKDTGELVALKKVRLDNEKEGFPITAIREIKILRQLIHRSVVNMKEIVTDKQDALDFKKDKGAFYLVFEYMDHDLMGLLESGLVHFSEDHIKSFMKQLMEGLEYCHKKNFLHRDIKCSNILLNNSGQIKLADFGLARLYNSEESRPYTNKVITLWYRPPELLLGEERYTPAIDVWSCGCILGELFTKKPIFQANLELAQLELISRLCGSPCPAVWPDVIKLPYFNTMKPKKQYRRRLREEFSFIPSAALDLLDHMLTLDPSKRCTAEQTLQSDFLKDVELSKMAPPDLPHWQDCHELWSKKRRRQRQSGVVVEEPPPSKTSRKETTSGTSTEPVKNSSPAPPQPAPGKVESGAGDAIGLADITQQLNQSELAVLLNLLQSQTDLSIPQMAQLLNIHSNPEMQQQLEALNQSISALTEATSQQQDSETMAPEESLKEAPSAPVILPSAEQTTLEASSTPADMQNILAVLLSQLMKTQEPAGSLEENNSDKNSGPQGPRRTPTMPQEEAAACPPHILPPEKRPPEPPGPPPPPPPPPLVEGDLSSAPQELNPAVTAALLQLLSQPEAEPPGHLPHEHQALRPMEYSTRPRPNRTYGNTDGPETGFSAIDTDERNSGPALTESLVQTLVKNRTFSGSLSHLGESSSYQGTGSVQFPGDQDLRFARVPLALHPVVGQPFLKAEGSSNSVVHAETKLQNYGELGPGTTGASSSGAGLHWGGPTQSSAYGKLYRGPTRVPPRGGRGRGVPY
Sequence of CDK12wt/CycK (O75909 whole entry partner): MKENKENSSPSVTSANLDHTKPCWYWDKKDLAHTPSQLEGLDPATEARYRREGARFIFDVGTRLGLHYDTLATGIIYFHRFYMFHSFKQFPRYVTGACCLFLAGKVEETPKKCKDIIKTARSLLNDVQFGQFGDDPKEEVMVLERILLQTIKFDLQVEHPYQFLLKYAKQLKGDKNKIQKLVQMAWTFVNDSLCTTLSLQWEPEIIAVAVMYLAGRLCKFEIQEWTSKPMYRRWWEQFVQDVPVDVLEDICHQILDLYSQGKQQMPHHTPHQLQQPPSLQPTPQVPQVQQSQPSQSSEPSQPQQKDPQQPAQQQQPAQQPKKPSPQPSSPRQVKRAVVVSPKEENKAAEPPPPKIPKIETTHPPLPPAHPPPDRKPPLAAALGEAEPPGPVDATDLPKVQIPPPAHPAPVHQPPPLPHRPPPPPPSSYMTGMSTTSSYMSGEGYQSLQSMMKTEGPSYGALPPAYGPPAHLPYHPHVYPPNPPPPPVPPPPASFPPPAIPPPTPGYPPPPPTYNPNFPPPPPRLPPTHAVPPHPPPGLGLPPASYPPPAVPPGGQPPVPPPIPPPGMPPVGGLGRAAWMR

DYRK2 = target: T2, DYRK2 (Homo sapiens, UniProt Q92630); assay: Kinase profiling; assay type: biochemical
T2 sequence (Q92630 1-601): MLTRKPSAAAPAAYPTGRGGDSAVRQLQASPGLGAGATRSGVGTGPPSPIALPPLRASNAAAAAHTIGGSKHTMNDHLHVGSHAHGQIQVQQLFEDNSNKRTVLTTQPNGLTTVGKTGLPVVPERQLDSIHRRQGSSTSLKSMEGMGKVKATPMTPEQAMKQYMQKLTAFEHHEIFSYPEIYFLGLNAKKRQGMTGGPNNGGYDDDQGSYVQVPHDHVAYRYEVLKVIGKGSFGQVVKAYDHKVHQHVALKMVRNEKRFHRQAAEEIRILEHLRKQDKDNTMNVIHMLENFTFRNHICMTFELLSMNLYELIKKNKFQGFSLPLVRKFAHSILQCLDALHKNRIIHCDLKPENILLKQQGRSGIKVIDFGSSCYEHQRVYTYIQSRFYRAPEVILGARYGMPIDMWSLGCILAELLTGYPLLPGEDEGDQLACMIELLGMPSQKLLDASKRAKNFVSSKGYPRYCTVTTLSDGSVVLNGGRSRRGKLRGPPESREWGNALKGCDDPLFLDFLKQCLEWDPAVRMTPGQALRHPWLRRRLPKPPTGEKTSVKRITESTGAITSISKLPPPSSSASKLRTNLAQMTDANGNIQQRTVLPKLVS

## CCN1CCN(Cc2ccc(Nc3ncc(F)c(-c4cc(F)c5nc(C)n(C(C)C)c5c4)n3)nc2)CC1 [Abemaciclib, reference compound]
CDK3/CycC
  pIC50: 4.30
CDK19/CycC
  pIC50: < 4.30
[1]
  GI50: 0.47 µM
[2]
  GI50: 1.24 µM
[3]
  GI50: 3.1 µM
[4]
  GI50: 1.5 µM
AKT1 aa1-480
  pIC50: < 4.30
HIPK2; 10 semi-logarithmic dilutions from 50 μM, singlicate, read-out: IC50 HIPK2
  pIC50: 4.33
CDC7/DBF4; 10 semi-logarithmic dilutions from 50 μM, singlicate, read-out: IC50 CDC7/DBF4
  pIC50: < 4.30
CDK8/CycC
  pIC50: < 4.30
ERK1
  pIC50: < 4.30
CDK3/CycE1
  pIC50: < 4.30
CDK12wt/CycK
  pIC50: 4.68

## CC[C@H](CO)Nc1nc(NCc2ccccc2)c2ncn(C(C)C)c2n1 [Roscovitine, reference compound]
HIPK2
  pIC50: < 4.30
CDC7/DBF4
  pIC50: 4.38
DYRK2
  pIC50: 4.42

— patent publication US20230042936A1, “PYRIDO[2,3-d]PYRIMIDIN-7(8H)-ONES AS CDK INHIBITORS” (PROSENESTAR LLC, priority 2020, published 2023)
